# Measurements: article PMC4059350 (DNA repair, 2014)
# Numbering of substitutions follows the chain as printed.
# What was measured:
# Msh2-Msh3 [1] = target: T1, Msh2-Msh3 (Saccharomyces cerevisiae, UniProt P25336+P25847); test: nitrocellulose filter binding, competition with […]-ATPγS after ADP pre-binding; settings: no DNA; 0.5 mM ADP, 8 μM ATPγS, 50 nM protein
# T1 sequence (P25847 1-964): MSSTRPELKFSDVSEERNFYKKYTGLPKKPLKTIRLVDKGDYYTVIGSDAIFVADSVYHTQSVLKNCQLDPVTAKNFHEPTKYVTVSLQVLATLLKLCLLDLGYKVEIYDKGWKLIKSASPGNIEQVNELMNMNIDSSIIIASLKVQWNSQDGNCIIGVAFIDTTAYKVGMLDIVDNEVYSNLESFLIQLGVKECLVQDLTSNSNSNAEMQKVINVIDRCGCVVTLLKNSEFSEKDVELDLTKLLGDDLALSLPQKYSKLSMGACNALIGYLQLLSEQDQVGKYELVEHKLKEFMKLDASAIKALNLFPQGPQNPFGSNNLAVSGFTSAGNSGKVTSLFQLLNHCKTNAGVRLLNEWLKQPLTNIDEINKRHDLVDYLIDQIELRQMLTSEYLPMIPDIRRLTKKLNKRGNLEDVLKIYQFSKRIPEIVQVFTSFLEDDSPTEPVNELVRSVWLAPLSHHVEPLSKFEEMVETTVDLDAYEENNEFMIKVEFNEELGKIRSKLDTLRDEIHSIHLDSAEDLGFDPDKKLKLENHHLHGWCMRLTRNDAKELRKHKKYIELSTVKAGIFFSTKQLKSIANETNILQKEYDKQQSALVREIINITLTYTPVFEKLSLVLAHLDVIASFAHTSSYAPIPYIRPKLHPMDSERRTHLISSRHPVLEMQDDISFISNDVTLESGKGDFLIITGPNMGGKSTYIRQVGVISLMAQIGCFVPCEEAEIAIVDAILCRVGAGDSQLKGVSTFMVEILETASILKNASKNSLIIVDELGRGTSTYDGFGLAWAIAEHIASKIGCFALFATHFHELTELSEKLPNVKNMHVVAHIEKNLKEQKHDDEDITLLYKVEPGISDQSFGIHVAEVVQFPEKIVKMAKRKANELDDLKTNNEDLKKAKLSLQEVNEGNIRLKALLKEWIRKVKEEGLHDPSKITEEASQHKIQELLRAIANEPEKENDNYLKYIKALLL
# T1 sequence (P25336 1-1018): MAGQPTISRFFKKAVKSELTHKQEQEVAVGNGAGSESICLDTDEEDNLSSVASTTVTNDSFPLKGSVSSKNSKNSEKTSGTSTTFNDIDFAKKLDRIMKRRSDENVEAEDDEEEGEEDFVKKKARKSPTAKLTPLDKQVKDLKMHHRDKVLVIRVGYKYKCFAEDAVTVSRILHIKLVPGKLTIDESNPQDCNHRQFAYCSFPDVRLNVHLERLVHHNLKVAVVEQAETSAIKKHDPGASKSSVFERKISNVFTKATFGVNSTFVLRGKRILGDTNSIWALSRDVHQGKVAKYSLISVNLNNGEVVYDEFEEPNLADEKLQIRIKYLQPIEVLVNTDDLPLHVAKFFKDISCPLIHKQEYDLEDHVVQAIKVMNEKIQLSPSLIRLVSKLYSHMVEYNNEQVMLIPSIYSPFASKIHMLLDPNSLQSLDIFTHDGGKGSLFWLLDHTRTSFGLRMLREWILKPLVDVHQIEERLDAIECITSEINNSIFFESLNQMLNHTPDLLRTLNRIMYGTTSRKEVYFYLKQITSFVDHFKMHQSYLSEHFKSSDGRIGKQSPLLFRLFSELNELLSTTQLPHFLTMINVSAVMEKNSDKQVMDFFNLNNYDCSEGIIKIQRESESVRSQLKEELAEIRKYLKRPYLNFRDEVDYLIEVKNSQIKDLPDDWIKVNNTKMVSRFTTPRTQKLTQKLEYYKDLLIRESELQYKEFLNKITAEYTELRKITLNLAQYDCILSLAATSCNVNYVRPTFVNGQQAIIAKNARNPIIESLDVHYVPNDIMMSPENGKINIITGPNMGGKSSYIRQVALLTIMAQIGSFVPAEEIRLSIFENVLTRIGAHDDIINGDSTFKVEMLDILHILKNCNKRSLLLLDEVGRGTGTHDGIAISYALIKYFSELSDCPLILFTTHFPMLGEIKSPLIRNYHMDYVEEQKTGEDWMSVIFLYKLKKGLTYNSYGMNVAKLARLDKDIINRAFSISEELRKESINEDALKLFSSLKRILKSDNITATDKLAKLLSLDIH
# Msh2-Msh3 [2] = target: T1, Msh2-Msh3; test: ATPγS titration into steady-state coupled ATPase assay; format: biochemical
# Msh2-Msh3 [3] = target: T2, Msh2-Msh3 (Saccharomyces cerevisiae, UniProt P25336+P25847, P25336:Y942A); test: as above; format: biochemical
# T2 sequence (P25847 1-964): T1 sequence (P25847 1-964)
# T2 sequence (P25336 1-1018 Y942A): T1 sequence (P25336 1-1018) with Y942A
smiles,measurement,setting,value
Nc1ncnc2c1ncn2[C@@H]1O[C@H](COP(=O)(O)OP(=O)(O)O)[C@@H](O)[C@H]1O [ADP],"fraction of ATPγS bound relative to no ADP, 30 s",Msh2-Msh3 [1],0.54 ± 0.15 fraction
Nc1ncnc2c1ncn2[C@@H]1O[C@H](CO[P@](=O)(O)O[P@](=O)(O)O[P@@](=O)(O)S)[C@@H](O)[C@H]1O [ATPγS],IC50,Msh2-Msh3 [2],6.3 mM
same,IC50,Msh2-Msh3 [3],0.8 mM
